Reference: US9527827B2, “C-9 oxygen functionalized labdane derivates” (COUNCIL OF SCIENTIFIC & INDUSTRIAL RESEARCH, priority 2011, dated 2016)
In brackets after ≈: the same amount, converted by molar mass. Entries after “also recorded” stand apart in the source; their conditions may differ.

How the values were obtained:
[1] = system: Mycobacterium tuberculosis H37Ra; assay: In vitro anti-mycobacterial activity against M. tuberculosis; assay type: cell-based; settings: for IC90 / IC50: Mycobacterium tuberculosis, M. tuberculosis H37Ra; for IC90 / IC50 / Inhibition of / anti-tubercular activity against Mycobacterium tuberculosis (in words): in vitro
Procedure: All the isolated compounds and whole acetone extract were tested for their in vitro effect against Mycobacterium tuberculosis H37Ra.

[2] = system: Mycobacterium smegmatis; assay: Specificity test against M. smegmatis (XTT reduction microplate assay); assay type: cell-based
[3] = system: Escherichia coli; assay: Specificity test against E. coli (growth, absorbance at 620 nm); assay type: cell-based
[4] = system: prostaglandin-induced contractions; settings: cited from earlier work
[5] = system: M. tuberculosis H37Rv; settings: cited from earlier work

NNC(=O)c1ccncc1 [Isoniazid, reference compound]
IC90 [1]: 0.05 ± 0.003 mg/L (≈ 0.365 µM)

CO[C@H]1/C=C/O[C@@]2(C)Oc3c(C)c(O)c4c(O)c(c(/C=N/N5CCN(C)CC5)c(O)c4c3C2=O)NC(=O)/C(C)=C\C=C\[C@H](C)[C@H](O)[C@@H](C)[C@@H](O)[C@@H](C)[C@H](OC(C)=O)[C@@H]1C [Rifampicin, reference compound]
IC90 ([2]; Mycolicibacterium smegmatis, reference drug, value is IC90, not percent inhibition): 0.2 ± 0.03 mg/L (≈ 0.243 µM)
IC90 ([3]; Escherichia coli, reference drug, value is IC90, not percent inhibition): 0.5 ± 0.04 mg/L (≈ 0.608 µM)

C=C[C@]1(C)C=C2C(=O)C[C@H]3C(C)(C)[C@@H](O[C@@H]4O[C@H](CO)[C@@H](O)[C@H](O)[C@H]4O[C@@H]4O[C@H](CO[C@@H]5O[C@H](CO)[C@@H](O)[C@H](O)[C@H]5O)[C@@H](O)[C@H](O)[C@H]4O)CC[C@]3(C)[C@H]2CC1 [leucasperosides A, leucasperoside A]
Inhibition of prostaglandin-induced contractions (in words) [4]: showed inhibition

C[C@@H]1CC[C@H]2C(C)(C)CCC[C@]2(C)[C@@]1(O)CC/C(=C/CO)CO [Compound 3]
Percent inhibition, M. smegmatis ([2]; tested at IC90 found against M. tuberculosis, mean ± S.D. of three experiments): 30.57 ± 3.58%
Percent inhibition, E. coli ([3]; tested at IC90 found against M. tuberculosis, 6 h incubation, mean ± S.D. of three experiments): 11.47 ± 1.65%
IC50 [1]: 9.8 mg/L (≈ 30.2 µM)
IC90 [1]: 46.5 mg/L (≈ 143 µM)
Inhibition of / anti-tubercular activity against Mycobacterium tuberculosis (in words) [1]: significant inhibition; also recorded: effective
Specificity / selectivity for M. tuberculosis (in words) ([1]; versus E. coli and M. smegmatis): specifically active; also recorded: selective inhibitors

C=C[C@](C)(O)CC[C@@H]1[C@@]2(C)CCCC(C)(C)[C@H]2CC[C@@]1(C)O [Compound 4]
IC50 [1]: 5.95 mg/L (≈ 19.3 µM)
IC90 [1]: 10.8 mg/L (≈ 35.2 µM)
Inhibition of / anti-tubercular activity against Mycobacterium tuberculosis (in words) [1]: potent anti-tubercular activity; also recorded: significant inhibition; also recorded: effective

leucasperone A
Inhibition of prostaglandin-induced contractions (in words) [4]: showed inhibition

linifolioside
Inhibition of prostaglandin-induced contractions (in words) [4]: showed inhibition

C=C[C@]1(C)C=C2C(=O)C[C@H]3C(C)(C)[C@@H](O[C@@H]4O[C@H](CO)[C@@H](O)[C@H](O)[C@H]4O[C@@H]4O[C@H](CO)[C@@H](O)[C@H](O)[C@H]4O)CC[C@]3(C)[C@H]2CC1 [leucasperosides B, leucasperoside B]
Inhibition of prostaglandin-induced contractions (in words) [4]: showed inhibition

C=CC(=C)CCC1C(=C)CC[C@H]2[C@@](C)(C(=O)O)[C@H](OC(C)=O)CC[C@]12C (some centres unmarked) [juniperexcelsic acid]
MIC [5]: 14.4 mg/L (≈ 39.9 µM)
